Literature values, collected in patent publication US20140271903A1, “USE OF THERMO-SENSITIVE GEL FOR CONTROLLED DELIVERY OF ALK-5 INHIBITORS TO THE EYE AND RELATED METHODS” (NORTHEAST OHIO MEDICAL UNIVERSITY, priority 2013, published 2014).

What was measured:
[1] = system: rabbit subconjunctival fibroblasts
[2] = system: rabbit subconjunctival fibroblasts; settings: cultured rabbit subconjunctival fibroblasts

| Structure (SMILES) | bleb survival (in vivo rabbit GFS model; recent rabbit studies, post-operative scarring after GFS) | bleb survival period compared to MMC (in vivo rabbit GFS model; in vivo rabbit GFS model) | period of filtering bleb survival (in vivo rabbit GFS model; in vivo rabbit GFS model) | toxicity in GFS compared to MMC (in vivo rabbit GFS model; rabbit, in vivo) | cytotoxicity and cell death versus antimetabolites (5-FU, MMC) [1] | downstream proteins of TGF-β: CTGF and a-SMA [2] |
| --- | --- | --- | --- | --- | --- | --- |
| CO[C@@]12[C@H](COC(N)=O)C3=C(C(=O)C(C)=C(N)C3=O)N1C[C@@H]1N[C@@H]12 [MMC, mitomycin-C] | around 30 days | – | – | – | – | – |
| Cc1cccc(-c2[nH]c(C(C)(C)C)nc2-c2ccc3c(c2)OCO3)n1 [SB-505124] | – | substantially shorter compared to MMC | extended the period of filtering bleb survival | substantially lower than that of MMC | less cytotoxic and causing less cell death than antimetabolites | marked reduction |
